# Biological target: MAPK14 (UniProt Q16539)
# Assay: Inhibition of MAPK14 Kinase Activity
# MAPK14, sequence (Q16539 whole entry, looked up): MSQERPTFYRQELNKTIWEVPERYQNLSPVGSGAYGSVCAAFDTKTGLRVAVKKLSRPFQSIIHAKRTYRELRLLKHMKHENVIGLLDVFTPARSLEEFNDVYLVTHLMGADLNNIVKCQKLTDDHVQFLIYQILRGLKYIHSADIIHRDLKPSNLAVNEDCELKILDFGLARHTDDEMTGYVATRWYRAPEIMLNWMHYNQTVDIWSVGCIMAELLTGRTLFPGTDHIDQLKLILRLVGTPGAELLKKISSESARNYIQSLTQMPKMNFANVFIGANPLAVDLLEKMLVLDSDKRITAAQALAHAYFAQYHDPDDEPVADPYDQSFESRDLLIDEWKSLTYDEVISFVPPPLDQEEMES
row,Compound,IC50 [µM]
1,Cc1ccc(C(=O)NC2CC2)cc1-c1ccc2c(C)noc2c1,< 10
2,Cc1ccc(C(=O)NC2CC2)cc1-c1ccc2c(cnn2S(=O)(=O)c2ccc(C(F)(F)F)cc2)c1,< 10
3,CCS(=O)(=O)n1ncc2cc(-c3cc(C(=O)NC4CC4)ccc3C)ccc21,< 10
4,Cc1ccc(C(=O)NC2CC2)cc1-c1ccc2c(cnn2S(=O)(=O)C(C)C)c1,< 10
5,CCCS(=O)(=O)n1ncc2cc(-c3cc(C(=O)NC4CC4)cc(F)c3C)ccc21,< 10
6,Cc1c(F)cc(C(=O)NC2CC2)cc1-c1ccc2c(cnn2CC(=O)NCC2CC2)c1,< 10
7,Cc1ccc(C(=O)NC2CC2)cc1-c1ccc2nc(NC(=O)C3CC3)sc2c1,< 10
8,Cc1ccc(C(=O)NC2CC2)cc1-c1ccc2c(cnn2S(=O)(=O)C2CC2)c1,< 10
9,Cc1c(F)cc(C(=O)NC2CC2)cc1-c1ccc2c(c1)c(C)nn2S(=O)(=O)c1cccs1,< 10
10,CNC(=O)c1ccc(CNC(=O)Cn2ncc3cc(-c4cc(C(=O)NC5CC5)ccc4C)ccc32)cc1,< 10
11,Cc1ccc(CNC(=O)Cn2ncc3cc(-c4cc(C(=O)NC5CC5)cc(F)c4C)ccc32)cc1,< 10
12,CCc1ccc(S(=O)(=O)n2ncc3cc(-c4cc(C(=O)NC5CC5)cc(F)c4C)ccc32)cc1,< 10
13,Cc1ccc(C(=O)NC2CC2)cc1-c1ccc2c(CN3CCCCC3)noc2c1,< 10
14,COc1cccc(S(=O)(=O)n2ncc3cc(-c4cc(C(=O)NC5CC5)ccc4C)ccc32)c1,< 10
15,COC(=O)Cn1ncc2cc(-c3cc(C(=O)NC4CC4)cc(F)c3C)ccc21,< 10
16,Cc1ccc(C(=O)NC2CC2)cc1-c1ccc2c(CC(=O)N3CCCCC3)noc2c1,< 10
17,Cc1ccc(C(=O)NC2CC2)cc1-c1ccc2c(cnn2S(=O)(=O)c2ccccc2)c1,< 10
18,Cc1ccc(C(=O)Nc2nccs2)cc1-c1ccc2c(C)noc2c1,< 10
19,Cc1ccc(NC(=O)c2ccsc2)cc1-c1ccc2c(C)noc2c1,< 10
20,Cc1c(F)cc(C(=O)NC2CC2)cc1-c1ccc2c(cnn2S(=O)(=O)c2ccc3c(c2)CCO3)c1,< 10
21,CCCCCCCCS(=O)(=O)n1ncc2cc(-c3cc(C(=O)NC4CC4)cc(F)c3C)ccc21,< 10
22,Cc1ccc(C(=O)NC2CC2)cc1-c1ccc2c(cnn2S(=O)(=O)c2ccc(-c3ccon3)s2)c1,< 10
23,Cc1c(F)cc(C(=O)NC2CC2)cc1-c1ccc2c(cnn2S(C)(=O)=O)c1,< 10

row,Compound,IC50 [µM]
1,Cc1ccc(C(=O)NC2CC2)cc1-c1ccc2c(cnn2S(=O)(=O)c2cccc3nonc23)c1,< 10
2,Cc1ccc(C(=O)NC2CC2)cc1-c1ccc2c(CC(=O)N3CCNCC3)noc2c1,< 10
3,Cc1c(F)cc(C(=O)NC2CC2)cc1-c1ccc2c(cnn2S(=O)(=O)c2ccsc2)c1,< 10
4,Cc1ccc(C(=O)NC2CC2)cc1-c1ccc2c(CNC(CO)CO)noc2c1,< 10
5,Cc1c(F)cc(C(=O)NC2CC2)cc1-c1ccc2c(cnn2S(=O)(=O)c2cccc(F)c2)c1,< 10
6,Cc1c(F)cc(C(=O)NC2CC2)cc1-c1ccc2c(C(=O)NCC3CC3)noc2c1,< 10
7,Cc1ccc(NC(=O)c2ccoc2)cc1-c1ccc2c(C3CCNCC3)noc2c1,< 10
8,COc1ccc(CNC(=O)Cn2ncc3cc(-c4cc(C(=O)NC5CC5)ccc4C)ccc32)cc1,< 10
9,Cc1ccc(C(=O)NC2CC2)cc1-c1ccc2cn[nH]c2c1,< 10
10,Cc1ccc(C(=O)NC2CC2)cc1-c1ccc2c(CN3CCCC3)noc2c1,< 10
11,Cc1ccc(C(=O)NC2CC2)cc1-c1ccc2c(N3CCOCC3)noc2c1,< 10
12,Cc1ccc(S(=O)(=O)n2ncc3cc(-c4cc(C(=O)NC5CC5)cc(F)c4C)ccc32)cc1,< 10
13,Cc1ccc(NC(=O)c2ccsc2)cc1-c1ccc2c(C3CCNCC3)noc2c1,< 10
14,Cc1ccc(C(=O)NC2CC2)cc1-c1ccc2c(cnn2S(C)(=O)=O)c1,< 10
15,Cc1ccc(C(=O)NC2CC2)cc1-c1ccc2c(N)noc2c1,< 10
16,Cc1ccc(NC(=O)c2ccoc2)cc1-c1ccc2c(C)noc2c1,< 10
17,Cc1ccc(C(=O)NC2CC2)cc1-c1ccc2c(CN3CCN(C)CC3)noc2c1,< 10
18,Cc1ccc(C(=O)NC2CC2)cc1-c1ccc2c(cnn2C2CCN(C(=O)OC(C)(C)C)CC2)c1,< 10
19,CCCNC(=O)c1noc2cc(-c3cc(C(=O)NC4CC4)cc(F)c3C)ccc12,< 10
20,CC(=O)c1ccc(S(=O)(=O)n2ncc3cc(-c4cc(C(=O)NC5CC5)ccc4C)ccc32)cc1,< 10
21,Cc1ccc(C(=O)NC2CC2)cc1-c1ccc2c(CC(=O)N3CCCC3)noc2c1,< 10
22,Cc1ccc(S(=O)(=O)n2ccc3cc(-c4cc(C(=O)NC5CC5)cc(F)c4C)ccc32)cc1,< 10

# Source: the Kinase Knowledgebase extract (Sharma et al. 2016)
